From ChEMBL document CHEMBL1681747, “Novel second generation analogs of eribulin. Part II: Orally available and active against resistant tumors in vivo” (Bioorg Med Chem Lett, 2011)

Experiments:
[1] = Cytotoxicity against human MES-SA/Dx5-Rx1 cells; assay type: functional, cell-based
DLD-1 = test: Cytotoxicity against human DLD1 cells; assay type: functional, cell-based
HCT-15 = test: Cytotoxicity against human HCT15 cells; assay type: functional, cell-based
MES-SA = test: Fold resistant ratio of IC50 for MES-SA/Dx5-Rx1 cells to IC50 for human MES-SA cells
[2] = Cytotoxicity against human MES-SA cells; assay type: functional, cell-based

| SMILES | IC50 [1] [nM] | IC50 (DLD-1) [nM] | IC50 (HCT-15) [nM] | Ratio IC50 (MES-SA) | IC50 [2] [nM] |
| --- | --- | --- | --- | --- | --- |
| C=C1C[C@@H]2CC[C@@]34C[C@H]5O[C@H]6[C@@H](O3)[C@H]3O[C@H](CC[C@@H]3O[C@H]6[C@H]5O4)CC(=O)C[C@@H]3[C@@H](OC)[C@@H](C[C@@H](CN4CC4C)OC)O[C@H]3C[C@H]3O[C@@H](CC[C@@H]1O2)C[C@@H](C)C3=C (stereo partly drawn) | 2.55 | 0.29 | 0.4 | 19.91 | 0.13 |
| C=C1C[C@@H]2CC[C@@]34C[C@H]5O[C@H]6[C@@H](O3)[C@H]3O[C@H](CC[C@@H]3O[C@H]6[C@H]5O4)CC(=O)C[C@@H]3[C@@H](OC)[C@@H](C[C@@H](CN(C)c4ncccn4)OC)O[C@H]3C[C@H]3O[C@@H](CC[C@@H]1O2)C[C@@H](C)C3=C | 10.1 | 6.9 | 5.4 | 4.66 | 2.17 |
| C=CCN(CC=C)C[C@H](C[C@H]1O[C@H]2C[C@H]3O[C@@H](CC[C@@H]4O[C@@H](CC[C@@]56C[C@H]7O[C@H]8[C@@H](O5)[C@H]5O[C@H](CC[C@@H]5O[C@H]8[C@H]7O6)CC(=O)C[C@@H]2[C@H]1OC)CC4=C)C[C@@H](C)C3=C)OC | 1.01 | 0.44 | 0.27 | 6.26 | 0.17 |
| C#CCN(CC#C)CC[C@H]1O[C@H]2C[C@H]3O[C@@H](CC[C@@H]4O[C@@H](CC[C@@]56C[C@H]7O[C@H]8[C@@H](O5)[C@H]5O[C@H](CC[C@@H]5O[C@H]8[C@H]7O6)CC(=O)C[C@@H]2[C@H]1OC)CC4=C)C[C@@H](C)C3=C | 3.99 | 1.42 | 0.89 | 5.65 | 0.69 |
| C=C1C[C@@H]2CC[C@@]34C[C@H]5O[C@H]6[C@@H](O3)[C@H]3O[C@H](CC[C@@H]3O[C@H]6[C@H]5O4)CC(=O)C[C@@H]3[C@@H](OC)[C@@H](C[C@@H](CNCC(=O)OCCCC)OC)O[C@H]3C[C@H]3O[C@@H](CC[C@@H]1O2)C[C@@H](C)C3=C | 1.6 | 0.58 | 0.37 | 5.83 | 0.28 |
| C=C1C[C@@H]2CC[C@@]34C[C@H]5O[C@H]6[C@@H](O3)[C@H]3O[C@H](CC[C@@H]3O[C@H]6[C@H]5O4)CC(=O)C[C@@H]3[C@@H](OC)[C@@H](CCN4CCC(C(F)(F)F)CC4)O[C@H]3C[C@H]3O[C@@H](CC[C@@H]1O2)C[C@@H](C)C3=C |  | 0.22 | 0.14 |  |  |
| C=C1C[C@@H]2CC[C@@]34C[C@H]5O[C@H]6[C@@H](O3)[C@H]3O[C@H](CC[C@@H]3O[C@H]6[C@H]5O4)CC(=O)C[C@@H]3[C@@H](OC)[C@@H](C[C@@H](CN4C[C@H]4C)OC)O[C@H]3C[C@H]3O[C@@H](CC[C@@H]1O2)C[C@@H](C)C3=C (stereo partly drawn) | 2.79 | 0.53 | 0.78 | 18.04 | 0.16 |
| C=CCN(CC=C)CC[C@H]1O[C@H]2C[C@H]3O[C@@H](CC[C@@H]4O[C@@H](CC[C@@]56C[C@H]7O[C@H]8[C@@H](O5)[C@H]5O[C@H](CC[C@@H]5O[C@H]8[C@H]7O6)CC(=O)C[C@@H]2[C@H]1OC)CC4=C)C[C@@H](C)C3=C | 1.15 | 0.31 | 0.21 | 6.57 | 0.17 |
| C=C1C[C@@H]2CC[C@@]34C[C@H]5O[C@H]6[C@@H](O3)[C@H]3O[C@H](CC[C@@H]3O[C@H]6[C@H]5O4)CC(=O)C[C@@H]3[C@@H](OC)[C@@H](C[C@H](O)CN4CCOCC4)O[C@H]3C[C@H]3O[C@@H](CC[C@@H]1O2)C[C@@H](C)C3=C | 7.26 | 0.31 | 0.36 | 49.82 | 0.15 |
| C#CCN(C)C[C@H](C[C@H]1O[C@H]2C[C@H]3O[C@@H](CC[C@@H]4O[C@@H](CC[C@@]56C[C@H]7O[C@H]8[C@@H](O5)[C@H]5O[C@H](CC[C@@H]5O[C@H]8[C@H]7O6)CC(=O)C[C@@H]2[C@H]1OC)CC4=C)C[C@@H](C)C3=C)OC |  | 0.31 | 0.19 |  |  |
| C=C1C[C@@H]2CC[C@@]34C[C@H]5O[C@H]6[C@@H](O3)[C@H]3O[C@H](CC[C@@H]3O[C@H]6[C@H]5O4)CC(=O)C[C@@H]3[C@@H](OC)[C@@H](C[C@@H](CN4CCN(C(=O)OCC)CC4)OC)O[C@H]3C[C@H]3O[C@@H](CC[C@@H]1O2)C[C@@H](C)C3=C | 3.05 |  |  | 38.1 | 0.08 |
| C=C1C[C@@H]2CC[C@@]34C[C@H]5O[C@H]6[C@@H](O3)[C@H]3O[C@H](CC[C@@H]3O[C@H]6[C@H]5O4)CC(=O)C[C@@H]3[C@@H](OC)[C@@H](C[C@@H](CN4CCN(C(F)(F)F)CC4)OC)O[C@H]3C[C@H]3O[C@@H](CC[C@@H]1O2)C[C@@H](C)C3=C | 0.83 | 0.17 | 0.15 | 6.03 | 0.14 |
| C=C1C[C@@H]2CC[C@@]34C[C@H]5O[C@H]6[C@@H](O3)[C@H]3O[C@H](CC[C@@H]3O[C@H]6[C@H]5O4)CC(=O)C[C@@H]3[C@@H](OC)[C@@H](C[C@@H](CN4CCN(S(=O)(=O)c5ccc(C)cc5)CC4)OC)O[C@H]3C[C@H]3O[C@@H](CC[C@@H]1O2)C[C@@H](C)C3=C | 39.1 | 0.99 | 0.62 | 12.35 | 3.16 |
| C=C(C)CN(CC)CC[C@H]1O[C@H]2C[C@H]3O[C@@H](CC[C@@H]4O[C@@H](CC[C@@]56C[C@H]7O[C@H]8[C@@H](O5)[C@H]5O[C@H](CC[C@@H]5O[C@H]8[C@H]7O6)CC(=O)C[C@@H]2[C@H]1OC)CC4=C)C[C@@H](C)C3=C |  | 0.61 | 0.46 |  |  |
| C=C1C[C@@H]2CC[C@@]34C[C@H]5O[C@H]6[C@@H](O3)[C@H]3O[C@H](CC[C@@H]3O[C@H]6[C@H]5O4)CC(=O)C[C@@H]3[C@@H](OC)[C@@H](CCN)O[C@H]3C[C@H]3O[C@@H](CC[C@@H]1O2)C[C@@H](C)C3=C | 47.6 | 4.67 | 8.57 | 288.17 | 0.17 |
| C=C(C)CN(CC)C[C@H](C[C@H]1O[C@H]2C[C@H]3O[C@@H](CC[C@@H]4O[C@@H](CC[C@@]56C[C@H]7O[C@H]8[C@@H](O5)[C@H]5O[C@H](CC[C@@H]5O[C@H]8[C@H]7O6)CC(=O)C[C@@H]2[C@H]1OC)CC4=C)C[C@@H](C)C3=C)OC |  | 0.51 | 0.34 |  |  |
| C=C1C[C@@H]2CC[C@@]34C[C@H]5O[C@H]6[C@@H](O3)[C@H]3O[C@H](CC[C@@H]3O[C@H]6[C@H]5O4)CC(=O)C[C@@H]3[C@@H](OC)[C@@H](CCN4CCOCC4)O[C@H]3C[C@H]3O[C@@H](CC[C@@H]1O2)C[C@@H](C)C3=C |  | 0.23 | 0.16 |  |  |
| C=C1C[C@@H]2CC[C@@]34C[C@H]5O[C@H]6[C@@H](O3)[C@H]3O[C@H](CC[C@@H]3O[C@H]6[C@H]5O4)CC(=O)C[C@@H]3[C@@H](OC)[C@@H](C[C@@H](CN4C[C@@H]4C)OC)O[C@H]3C[C@H]3O[C@@H](CC[C@@H]1O2)C[C@@H](C)C3=C (stereo partly drawn) | 2.23 | 0.47 | 0.67 | 18.26 | 0.13 |
| C=CCN(C)C[C@H](C[C@H]1O[C@H]2C[C@H]3O[C@@H](CC[C@@H]4O[C@@H](CC[C@@]56C[C@H]7O[C@H]8[C@@H](O5)[C@H]5O[C@H](CC[C@@H]5O[C@H]8[C@H]7O6)CC(=O)C[C@@H]2[C@H]1OC)CC4=C)C[C@@H](C)C3=C)OC | 1.95 | 0.23 | 0.22 | 29.4 | 0.07 |
| C#CCN(CC#C)C[C@H](C[C@H]1O[C@H]2C[C@H]3O[C@@H](CC[C@@H]4O[C@@H](CC[C@@]56C[C@H]7O[C@H]8[C@@H](O5)[C@H]5O[C@H](CC[C@@H]5O[C@H]8[C@H]7O6)CC(=O)C[C@@H]2[C@H]1OC)CC4=C)C[C@@H](C)C3=C)OC | 0.53 | 0.28 | 0.17 | 3.99 | 0.13 |
